How the values were obtained:
Type in all cases: in vivo, dog
Labrador Retrievers [1] = assay: Subjective recovery score (soreness, lameness) after long runs, Example 1; details: Ex.1, 250 mg/d; observed 24 hr following each long run; either treatment
Description: Each test dog wore an Actical activity monitor from Philips Respironics on a collar for the short higher intensity runs and also wore an Actical activity monitor for the weekly longer endurance runs. The activity data was downloaded into spread sheets along with each dogs identity. Twenty four hours after each long run during the 13 wk running program each of the dogs were scored by kennel staff for soreness or any type of lameness The exercise program was decreased in a tapering program during wk 11 and 12 to allow the dogs to rest for the final long run completed on wk 13. Pre-run serum samples from each test dog was taken 24 hr before the last endurance run. The heart rate and basal body temperature was determined for each test dog prior to the last long endurance run. A subjective recovery score was determined 24 hours after endurance run for each test dog once per week. The subjective recovery score (1-5; score of 1 for no soreness or stiffness in limbs and a score of 5 meant major soreness and stiffness) was based on ease of movement and soreness of each dog. The same subjective system was used 6 hr after the long 15 mile run and again at 24 and 48 hr to evaluate the recovery of the dogs as far as soreness and desire to move.

Labrador Retrievers [2] = assay: Activity (APM, APM/kg) by Actical monitor and GPS collar, Example 2 part one; details: for APM / APM/kg: crossover L-carnitine dogs
Description: Both the L-carnitine and control performance dogs were put through a weekly running program consisting of two evenly distributed endurance runs. Groups ranging between 6 and 10 dogs were run together, including both treatments in each group. The endurance runs increased incrementally by 0.5 miles per week (5 miles/session increasing to 10 miles per session over an 11 week period). The dogs were allowed a 1 day rest between runs and a 3 day rest before a scheduled exercise distance increase. The dogs were put through maintenance runs of 5 miles twice in the 12th week and then 2 miles twice in the 13th week. All dogs had at least 4 days of rest prior to the final 15 miles run in the 14th week. The first exercise session during the week consisted only of endurance style running, while the second session included short 100 m sprints at each mile interval in order to incorporate measurable anaerobic exercise into the weekly regimen. The endurance runs were slightly slower to enhance fat oxidation and represent an exercise intensity equivalent to 50%-65% VO2 max. Each performance dog wore the Actical activity monitor and GPS tracking collar during the last 15 mile endurance run. The final run was conducted in a manner analogous to that of Example 1. All activity was accurately and precisely calculated using the GPS tracking monitors. Immediately following the 15 mile endurance run, each dog was placed in a kennel and evaluated for recovery time in body temperature (every 15 minutes for 2 hours) and heart rate (every 2 minutes for up to 20 minutes until basal beats per minute (BPM) was reached). Body temperature and heart rate were measured as described in Example 1.

creatine kinase = assay: Serum creatine kinase, Example 2 part one; details: for Creatine Kinase: serum
Procedure: (§1) Twenty-four hours after test dogs ran the last 15 mile endurance run, serum samples were taken to evaluate biomarkers for muscle damage and antioxidant status. Blood samples were taken 1) just prior to the beginning of the study; 2) 1 day prior to running the final 15 mile run on the 14th week; 3) 1 hour immediately following the 15 mile run; and 4) 24 hours following the final 15 mile run. After a blood sample was drawn, it was allowed to clot for 30 minutes at 25° C. before being centrifuged for 15 minutes at 2000 g at 4° C. Serum was aliquoted into 0.65 mL microcentrifuge tubes and stored at −80° C. until being assayed at the end of the study for creatine kinase, canine myoglobin, thiobarbituric acid reactive substances (TBARS), and total antioxidant capacity (TAC) using the commercially available kits described in Example 1.

[3] = test system: total antioxidant capacity (TAC); assay: Serum total antioxidant capacity (TAC), Example 2 part one; details: for TAC: serum
Procedure: as §1

[4] = Ex.2 part one, 250 mg/d, 19 L-carnitine dogs that were control dogs in Example 1
[5] = data collected in Example 1 (then control dogs)
[6] = Whole Groups, Post-Run 1 Hr, Post-Run 1 Hr
[7] = Whole Groups, Post-Run 24 Hr, Post-Run 24 Hr

## C[N+](C)(C)C[C@H](O)CC(=O)[O-] [L-carnitine]
Labrador Retrievers [1]
  Lameness or soreness after long runs (score 1-5): no noticeable effects
Labrador Retrievers [2]; [4]
  Crossover activity gain, APM: 27,697
  Crossover activity gain, APM/kg: 975
Labrador Retrievers [2]; Example 2 part one, 250 mg/d
  APM: 63,272
  APM/kg: 2274
Labrador Retrievers [2]; [5]
  APM: 37,621
  APM/kg: 1363
Creatine kinase; Ex.2 part one, 250 mg/d, 1 hour post-endurance run
  CK increase from pre-run values: 10.81 units
Creatine kinase; Ex.2 part one, 250 mg/d, 1 hour post-run
  CK values, serum: 26.39 mU/mL
Creatine kinase; Ex.2 part one, 250 mg/d, 24 hour post-run
  CK values, serum: 23.06 mU/mL
Creatine kinase; FEMALES, Baseline
  Creatine Kinase: 26.44 ± 3.08 mU · mL
Creatine kinase; FEMALES, Post-Run 1 Hr
  Creatine Kinase: 26.8 ± 1.36 mU · mL
Creatine kinase; FEMALES, Post-Run 24 Hr
  Creatine Kinase: 21.71 ± 0.79 mU · mL
Creatine kinase; FEMALES, Pre-Run
  Creatine Kinase: 17.14 ± 1.96 mU · mL
Creatine kinase; MALES, Baseline
  Creatine Kinase: 20.81 ± 2.98 mU/mL
Creatine kinase; MALES, Post-Run 1 Hr
  Creatine Kinase: 25.98 ± 1.39 mU/mL
Creatine kinase; MALES, Post-Run 24 Hr
  Creatine Kinase: 24.4 ± 1.53 mU/mL
Creatine kinase; MALES, Pre-Run
  Creatine Kinase: 14.02 ± 1.98 mU/mL
Creatine kinase; Whole Groups, Baseline
  Creatine Kinase: 23.63 ± 2.17 mU/mL
Creatine kinase; [6]
  Creatine Kinase: 26.39 ± 0.96 mU/mL
Creatine kinase; [7]
  Creatine Kinase: 23.06 ± 0.88 mU/mL
Creatine kinase; Whole Groups, Pre-Run
  Creatine Kinase: 15.58 ± 1.4 mU/mL
[3]; Ex.2 part one, 250 mg/d, post-run 24-hr
  TAC levels, serum: 0.16 mM Trolox equiv
[3]; FEMALES, Baseline
  TAC: 0.15 ± 0.01 mM Trolox Equiv
[3]; FEMALES, Post-Run 1 Hr
  TAC: 0.15 ± 0.01 mM Trolox Equiv
[3]; FEMALES, Post-Run 24 Hr
  TAC: 0.16 ± 0.01 mM Trolox Equiv
[3]; FEMALES, Pre-Run
  TAC: 0.13 ± 0.01 mM Trolox Equiv
[3]; MALES, Baseline
  TAC: 0.18 ± 0.01 mM Trolox Equiv
[3]; MALES, Post-Run 1 Hr
  TAC: 0.16 ± 0.01 mM Trolox Equiv
[3]; MALES, Post-Run 24 Hr
  TAC: 0.16 ± 0.01 mM Trolox Equiv
[3]; MALES, Pre-Run
  TAC: 0.15 ± 0.01 mM Trolox Equiv
[3]; Whole Groups, Baseline
  TAC: 0.17 ± 0.01 mM Trolox Equiv
[3]; [6]
  TAC: 0.15 ± 0.01 mM Trolox Equiv
[3]; [7]
  TAC: 0.16 ± 0.01 mM Trolox Equiv
[3]; Whole Groups, Pre-Run
  TAC: 0.14 ± 0.01 mM Trolox Equiv
